# Test results published in patent US6911537B2, “Xenobiotic compound modulated expression systems and uses therefor” (The Salk Institute for Biological Studies, priority 1998, dated 2005).
# Where two headings read alike, the source gives them in different places.
# Key:
# mouse PXR = biological target: T1, mouse PXR (Mus musculus, UniProt O54915); test: Transfection-based reporter assay in CV-1 cells, mouse PXR; details: 50 μM, tamoxifen 5 μM (FIG. 7B)
# T1 sequence (O54915 1-431): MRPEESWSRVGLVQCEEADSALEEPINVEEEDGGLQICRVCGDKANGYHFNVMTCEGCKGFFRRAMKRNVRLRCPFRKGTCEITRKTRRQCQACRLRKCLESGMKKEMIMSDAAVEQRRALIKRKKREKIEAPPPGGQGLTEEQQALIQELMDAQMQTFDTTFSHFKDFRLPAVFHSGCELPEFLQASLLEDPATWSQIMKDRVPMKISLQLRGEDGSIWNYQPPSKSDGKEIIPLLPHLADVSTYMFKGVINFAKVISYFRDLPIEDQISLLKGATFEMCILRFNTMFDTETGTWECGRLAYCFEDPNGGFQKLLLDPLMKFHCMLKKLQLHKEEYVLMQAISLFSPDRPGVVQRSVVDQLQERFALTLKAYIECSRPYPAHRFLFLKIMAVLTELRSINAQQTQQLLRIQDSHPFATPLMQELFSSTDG
# Source text: FIGS. 7A-C are bar graphs illustrating the ability of a panel of compounds to activate a representative of three members of the nuclear receptor superfamily, human SXR (FIG. 7A); mouse PXR (FIG. 7B); and human estrogen receptor alpha (hERα; FIG. 7C).
# SXR [1] = biological target: T2, SXR (Homo sapiens, UniProt O75469)
# T2 sequence (O75469 1-434): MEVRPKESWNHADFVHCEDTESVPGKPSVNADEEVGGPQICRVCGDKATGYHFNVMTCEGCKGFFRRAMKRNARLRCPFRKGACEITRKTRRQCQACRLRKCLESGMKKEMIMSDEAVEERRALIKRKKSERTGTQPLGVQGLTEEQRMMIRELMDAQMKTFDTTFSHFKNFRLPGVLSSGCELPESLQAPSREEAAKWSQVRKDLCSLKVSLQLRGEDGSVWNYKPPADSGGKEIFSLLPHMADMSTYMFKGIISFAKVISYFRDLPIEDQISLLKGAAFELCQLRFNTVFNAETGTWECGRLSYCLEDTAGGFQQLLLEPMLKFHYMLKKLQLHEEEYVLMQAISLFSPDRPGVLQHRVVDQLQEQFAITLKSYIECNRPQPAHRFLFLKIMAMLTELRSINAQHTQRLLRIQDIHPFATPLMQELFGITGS
# Protocol: (§1) The PCR-amplified sequences and target mutagenesis were confirmed by DNA sequencing.
# (§2) All compounds were purchased from Sigma.
# (§3) A panel of natural and synthetic steroid and nonsteroid compounds were tested for their ability to activate SXR and/or PXR in transfection-based assays using primary rat hepatocytes as recipient cells and the cellular promoters of the rat CYP3A23 gene or the human CYP3A4 gene as reporters.
# endogenous PXR [2] = biological target: T3, endogenous PXR (Rattus norvegicus, UniProt Q9R1A7); details: hepatocytes
# T3 sequence (Q9R1A7 1-431): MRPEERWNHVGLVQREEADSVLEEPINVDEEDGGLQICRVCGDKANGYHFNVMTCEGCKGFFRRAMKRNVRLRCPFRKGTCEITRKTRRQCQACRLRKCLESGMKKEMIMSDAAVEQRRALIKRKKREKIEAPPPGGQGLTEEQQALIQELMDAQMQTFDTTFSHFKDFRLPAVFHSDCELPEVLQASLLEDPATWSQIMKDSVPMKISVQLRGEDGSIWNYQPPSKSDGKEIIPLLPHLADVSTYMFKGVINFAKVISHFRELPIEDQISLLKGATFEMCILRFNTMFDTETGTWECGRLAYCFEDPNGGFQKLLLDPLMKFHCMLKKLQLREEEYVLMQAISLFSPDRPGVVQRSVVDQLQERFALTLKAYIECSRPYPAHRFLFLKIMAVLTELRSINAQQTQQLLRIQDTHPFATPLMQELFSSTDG
# Protocol: as §1, §2, §3
# endogenous PXR [3] = biological target: T3, endogenous PXR; test: Human CYP3A4 cellular promoter reporter in primary rat hepatocytes, endogenous receptor; details: rodent cellular environment (FIG. 8B)
# Source text: as §1, §2
# CYP3A11 gene = details: single dose 24 h before sacrifice
# Protocol: The animals were allowed free access to food and water at all times. […] When necessary, mice were treated with a single intraperitoneal injection of DEX (50 mg/kg), PCN (40 mg/kg), or CTZ (50 mg/kg).
# To detect specific transcripts, [^32P]-cDNA probes labeled by Random Primer Labeling Kit (Boringher) were hybridized to the membranes. The probe used to detect transgene contains both the SXR cDNA and the SV40 sequences. […] The filters were subsequently stripped and rehybridized with a murine glyceraldehyde-3-phosphate dehydrogenase (GAPDH) cDNA probe for RNA loading normalization.
# Tissues were harvested 24 h later and subjected to Northern blot analysis.
# SXR [4] = biological target: T4, SXR (Homo sapiens, UniProt O75469); remark: listed apart in the source
# T4 sequence (O75469 1-434): T2 sequence (O75469 1-434)
# T4 sequence (P19793 1-462 partner): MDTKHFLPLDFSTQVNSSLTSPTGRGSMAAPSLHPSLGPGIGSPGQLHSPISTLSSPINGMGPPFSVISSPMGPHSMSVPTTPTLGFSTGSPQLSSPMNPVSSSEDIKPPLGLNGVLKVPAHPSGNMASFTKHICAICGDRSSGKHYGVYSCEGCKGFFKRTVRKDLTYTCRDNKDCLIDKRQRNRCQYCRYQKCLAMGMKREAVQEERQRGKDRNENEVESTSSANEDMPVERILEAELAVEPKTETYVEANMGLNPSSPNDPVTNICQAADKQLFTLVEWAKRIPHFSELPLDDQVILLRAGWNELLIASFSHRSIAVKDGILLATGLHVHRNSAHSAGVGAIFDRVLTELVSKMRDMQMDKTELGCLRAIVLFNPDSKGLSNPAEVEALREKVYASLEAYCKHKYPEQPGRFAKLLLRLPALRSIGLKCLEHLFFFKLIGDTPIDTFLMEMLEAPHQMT
# Source text: (§4) Thus, the protein coding region of SXR was PCR amplified and subcloned into NcoI and BamH1 sites of the vector pCDG1 (see Blumberg et al., supra). During this process the putative initiator Leu was converted to Met with a Kozak consensus sequence CCATGG.
# SXR [5] = biological target: T4, SXR; test: Transfection-based reporter assay in CV-1 cells, GAL4-SXR or full-length SXR; set-up: Activation of SXR response elements (DR-3, DR-4, DR-5) by full-length SXR: dose or concentration left out as unconfirmed; details: for Activation of SXR in transfection-based assays: GAL4-SXR LBD chimera or full-length SXR, CV-1 cells, steroids at high doses, up to 50 mM [sic]; for Activation of SXR response elements (DR-3, DR-4, DR-5) by full-length SXR: cotransfection, panel of steroids as printed (FIG. 4)
# Source text: as §4
# [6] = clinical trials, of 2510 patients; cited from earlier work
smiles,measurement,setting,value
"CC(=O)[C@H]1[C@H](C#N)C[C@H]2[C@@H]3CC=C4C[C@@H](O)CC[C@]4(C)[C@H]3CC[C@@]21C [PCN, pregnenolone-16-carbonitrile]",Activation of mouse PXR,mouse PXR,preferentially activated
same,"Activation of CYP3A23 promoter reporter with mutated DR-3 element (DR3/M1, DR3/M2)",SXR [1],abolished
same,Inducibility of CYP3A23 promoter reporter with DR-3 replaced by IR-6 element (DR3/IR6),SXR [1],rescueS the inducibility
same,Induction of CYP3A23 promoter reporter with co-transfection of SXR,SXR [1],remained unchanged
same,Activation of CYP3A23 promoter reporter in the absence of SXR,endogenous PXR [2],most potent and efficacious tested activators
same,Activation of human CYP3A4 promoter reporter via endogenous PXR,endogenous PXR [3],can be activated
same,Induction of liver CYP3A11 expression in Alb-SXR transgenic mice,"CYP3A11 gene; RIF 5 mg/kg, BRL 20 mg/kg, troglitazone and ciglitazone 150 mg/kg by gavage, CTZ 50 mg/kg, PCN 40 mg/kg i.p.",equally efficacious CYP3A11 inducer
same,Induction of liver CYP3A11 expression in wild type / nontransgenic mice,CYP3A11 gene; same doses as in transgenic mice,equally efficacious CYP3A11 inducer
same,Activation of human SXR by compounds known to induce CYP3A4,SXR [4],weak activator
same,Activation of SXR in transfection-based assays,SXR [5],activated
same,"Activation of SXR response elements (DR-3, DR-4, DR-5) by full-length SXR",SXR [5],among the best activators
"C[C@]12CC[C@@H]3c4ccc(O)cc4CC[C@H]3[C@@H]1CC[C@@H]2O [estradiol, 17β-estradiol]",Activation of mouse PXR,mouse PXR,similarly activated
same,Induction of CYP3A23 promoter reporter with co-transfection of SXR,SXR [1],significant induction
same,Activation of human SXR by compounds known to induce CYP3A4,"SXR [5]; 50 μM, tamoxifen 5 μM (FIG. 7A)",most potent activators
same,Activation of SXR in transfection-based assays,SXR [5],remarkably effective activators
same,"Activation of SXR response elements (DR-3, DR-4, DR-5) by full-length SXR",SXR [5],among the best activators
C[C@]12CC[C@H]3[C@@H](CCC4=CC(=O)CC[C@@]43C)[C@@H]1CC[C@@H]2O [testosterone],Activation of mouse PXR,mouse PXR,similarly activated
same,Activation of SXR in transfection-based assays,SXR [4],activated
Cc1c(C)c2c(c(C)c1O)CCC(C)(COc1ccc(CC3SC(=O)NC3=O)cc1)O2 (stereo not shown) [troglitazone],Incidence of hepatotoxicity (alanine aminotransferase level > three times the upper limit of normal),[6],1.9%
